Measurements reported in patent US10781470B2, “Diagnosis and treatment of incipient diabetes” (priority 2015, dated 2020).

System: stool alkaline phosphatase (AP)
Test: Stool alkaline phosphatase assay in presence of AP isoform inhibitors
Conditions: stool supernatant; for inhibition of the AP activity in the stool: inhibitor 10 mM, pNPP substrate
Method: Homogenization of stool: The supernatant of a homogenized stool suspension was used for IAP assay. A small amount of stool (milligrams) was measured and then the ‘stool dilution buffer’ (10 mM (millimolar) Tris-HCl, pH 8.0, 1 mM magnesium chloride, 10 μM (micromolar) zinc chloride) at a defined ratio was added. Usually, 50 μl (microliter) of stool dilution buffer was added to 1 mg of stool. The sample was vigorously vortexed to prepare a homogenized stool suspension, which was then centrifuged at 10,000×g for 20 min, and the supernatant containing IAP was collected and assayed for IAP concentration.
Alkaline Phosphatase Assay. The stool supernatant was assayed for alkaline phosphatase (AP) following an established protocol using the automatic biochemistry analyzer mentioned above (Nanjing, Jiangsu, China). In brief, 20 of supernatant was added to 1 ml of enzyme assay buffer (1.25 M diethanolamine (DEA) buffer, pH 10.2, 0.6 mM magnesium chloride) containing 10 mM p-nitrophenyl phosphate (pNPP), and the reaction mixture was incubated for one min at 37° C. followed by measuring the AP concentration by the analyzer pre-calibrated with AP standards. To determine the major isoform among stool APs, prior to assaying for AP activity an aliquot of stool sample was treated for 10 min with L-phenylalanine (L-Phe, 10 mM final conc.), a specific inhibitor of LAP, and another aliquot with L-homoarginine (L-Arg, 10 final conc.), an inhibitor of tissue non-specific alkaline phosphatase (TNAP). Each aliquot treated with an inhibitor was then mixed with the reaction buffer containing an equal concentration (10 mM) of the respective inhibitor, and assayed for AP activity using the analyzer. […] All AP assays were performed by a single laboratory technologist who was blinded to the diagnoses of participants. […]
Stool samples of non-diabetic healthy controls and T2DM patients were homogenized in a stool dilution buffer followed by centrifuging and collection of supernatant. […] Statistics: Values are expressed as mean+/−SEM. […]

Row | inhibition of the AP activity in the stool (total diabetic (T2DM) population) | inhibition of the AP activity in the stool (total healthy population) | Compound | inhibitory effect on the stool AP activity (either group (healthy controls and T2DM patients))
1 |  |  | N=C(N)NCCCC[C@H](N)C(=O)O [L-Arg, L-homoarginine] | no inhibitory effect
2 | approx. 70% | approx. 80% | N[C@@H](Cc1ccccc1)C(=O)O [L-Phe, L-phenylalanine] | 
